The source made the active and inactive calls. The calls are words filed in the database; no cut-off is given here.
Key:
[1] = tested on: Rattus norvegicus; experiment: Compound was tested in vivo for Antihyperglycemic activity in Zucker Diabetic fatty rats, activity is expressed as percent reduction of plasma glucose; type: functional
[2] = organism: Rattus norvegicus; experiment: Compound was tested for Antihyperlipidemic activity in Zucker Diabetic fatty rats, activity is expressed as percent reduction of NEFAs; type: functional
[3] = organism: Mus musculus; experiment: Compound was tested for Antihyperlipidemic activity, activity is expressed as percent reduction of Triglycerides; type: functional
[4] = molecular target: T1, Peroxisome proliferator-activated receptor delta (Mus musculus) (UniProt P35396); experiment: Compound was tested functionally in vitro for inducing 50% of the maximum alkaline phosphatase activity (Transactivation) against murine Peroxisome proliferator activated receptor delta using transfection assay in CV-1 cells; IA = Inactive at 10e-4 M; type: functional, cell-based
T1 sequence (whole entry): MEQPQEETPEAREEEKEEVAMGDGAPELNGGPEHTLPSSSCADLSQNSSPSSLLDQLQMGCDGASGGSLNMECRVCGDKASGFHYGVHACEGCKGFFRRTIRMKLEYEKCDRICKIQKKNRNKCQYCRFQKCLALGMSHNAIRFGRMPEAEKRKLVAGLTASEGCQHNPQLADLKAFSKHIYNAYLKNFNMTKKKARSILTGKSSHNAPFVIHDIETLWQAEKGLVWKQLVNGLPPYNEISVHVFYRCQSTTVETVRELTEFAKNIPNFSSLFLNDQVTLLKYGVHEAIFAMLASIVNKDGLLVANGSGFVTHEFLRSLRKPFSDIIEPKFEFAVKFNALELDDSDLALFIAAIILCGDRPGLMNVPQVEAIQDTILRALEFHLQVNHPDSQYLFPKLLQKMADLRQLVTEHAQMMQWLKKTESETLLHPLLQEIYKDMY

[5] = molecular target: T2, Peroxisome proliferator-activated receptor delta (Homo sapiens) (UniProt Q03181); settings: CV-1; 10e-4 M
T2 sequence (whole entry): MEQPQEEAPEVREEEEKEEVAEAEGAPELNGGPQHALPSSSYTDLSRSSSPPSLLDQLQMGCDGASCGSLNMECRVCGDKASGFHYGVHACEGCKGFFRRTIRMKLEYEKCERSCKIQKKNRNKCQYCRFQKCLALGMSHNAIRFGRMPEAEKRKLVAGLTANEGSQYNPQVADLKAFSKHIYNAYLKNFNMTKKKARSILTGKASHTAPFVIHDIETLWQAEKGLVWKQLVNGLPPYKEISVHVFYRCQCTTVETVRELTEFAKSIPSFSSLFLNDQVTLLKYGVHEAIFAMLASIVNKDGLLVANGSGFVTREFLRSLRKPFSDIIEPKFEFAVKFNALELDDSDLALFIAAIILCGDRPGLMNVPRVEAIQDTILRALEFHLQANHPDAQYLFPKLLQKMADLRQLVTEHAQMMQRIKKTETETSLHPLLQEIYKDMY
Description: Compound was tested functionally in vitro for inducing 50% of the maximum alkaline phosphatase activity (Transactivation) against human Peroxisome proliferator activated receptor delta using transfection assay in CV-1 cells; IA = Inactive at 10e-4 M

[6] = organism: Mus musculus; experiment: Compound was tested for Antihyperlipidemic activity, activity is expressed as percent increase of body weight
[7] = organism: Mus musculus; experiment: Compound was tested for Antihyperlipidemic activity, activity is expressed as percent reduction of NEFAs; type: functional
[8] = molecular target: T3, Peroxisome proliferator-activated receptor alpha (Mus musculus) (UniProt P23204); experiment: Compound was tested functionally in vitro for inducing 50% of the maximum alkaline phosphatase activity (Transactivation) against murine Peroxisome proliferator activated receptor alpha using transfection assay in CV-1 cells; IA = Inactive at 10e-4 M; type: functional, cell-based
T3 sequence (whole entry): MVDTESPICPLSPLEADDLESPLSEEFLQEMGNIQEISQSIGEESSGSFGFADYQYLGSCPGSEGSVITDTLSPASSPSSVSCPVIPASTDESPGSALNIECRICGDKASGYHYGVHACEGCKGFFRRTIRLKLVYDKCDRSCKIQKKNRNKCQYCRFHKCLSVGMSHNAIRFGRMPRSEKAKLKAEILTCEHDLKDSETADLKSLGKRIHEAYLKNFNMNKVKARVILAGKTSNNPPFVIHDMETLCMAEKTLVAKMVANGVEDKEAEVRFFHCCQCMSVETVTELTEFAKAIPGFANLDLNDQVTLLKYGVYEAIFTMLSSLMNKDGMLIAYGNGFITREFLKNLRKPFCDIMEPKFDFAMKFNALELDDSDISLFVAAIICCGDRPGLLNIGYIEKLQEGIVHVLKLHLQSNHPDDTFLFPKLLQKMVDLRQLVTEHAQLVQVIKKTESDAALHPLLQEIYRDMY

[9] = tested on: Mus musculus; experiment: Compound was tested in vivo for Antihyperglycemic activity in mice, activity is expressed as percent reduction of plasma glucose.; type: functional
[10] = molecular target: T4, Peroxisome proliferator-activated receptor alpha (Homo sapiens) (UniProt Q07869); settings: CV-1; 10e-4 M
T4 sequence (whole entry): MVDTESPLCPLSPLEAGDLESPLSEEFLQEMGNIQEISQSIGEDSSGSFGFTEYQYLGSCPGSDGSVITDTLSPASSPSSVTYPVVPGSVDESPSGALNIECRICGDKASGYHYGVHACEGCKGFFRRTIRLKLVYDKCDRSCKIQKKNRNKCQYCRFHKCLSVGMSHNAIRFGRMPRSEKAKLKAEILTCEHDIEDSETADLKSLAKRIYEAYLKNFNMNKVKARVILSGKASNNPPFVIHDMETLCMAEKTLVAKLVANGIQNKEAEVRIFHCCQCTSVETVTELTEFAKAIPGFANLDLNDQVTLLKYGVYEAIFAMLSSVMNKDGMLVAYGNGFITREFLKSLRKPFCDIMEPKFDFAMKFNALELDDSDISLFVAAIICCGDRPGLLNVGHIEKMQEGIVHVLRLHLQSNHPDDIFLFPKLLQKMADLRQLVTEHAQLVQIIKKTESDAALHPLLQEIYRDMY

[11] = tested on: Rattus norvegicus; experiment: Compound was tested in vivo for Antihyperglycemic activity in Zucker Diabetic fatty rats, activity is expressed as percent reduction of HbA1C.; type: functional
[12] = molecular target: T5, Peroxisome proliferator-activated receptor gamma (Mus musculus, UniProt P37238); experiment: Compound was tested functionally in vitro for inducing 50% of the maximum alkaline phosphatase activity (Transactivation) against murine Peroxisome proliferator activated receptor gamma using transfection assay in CV-1 cells; type: functional, cell-based
T5 sequence (P37238 whole entry): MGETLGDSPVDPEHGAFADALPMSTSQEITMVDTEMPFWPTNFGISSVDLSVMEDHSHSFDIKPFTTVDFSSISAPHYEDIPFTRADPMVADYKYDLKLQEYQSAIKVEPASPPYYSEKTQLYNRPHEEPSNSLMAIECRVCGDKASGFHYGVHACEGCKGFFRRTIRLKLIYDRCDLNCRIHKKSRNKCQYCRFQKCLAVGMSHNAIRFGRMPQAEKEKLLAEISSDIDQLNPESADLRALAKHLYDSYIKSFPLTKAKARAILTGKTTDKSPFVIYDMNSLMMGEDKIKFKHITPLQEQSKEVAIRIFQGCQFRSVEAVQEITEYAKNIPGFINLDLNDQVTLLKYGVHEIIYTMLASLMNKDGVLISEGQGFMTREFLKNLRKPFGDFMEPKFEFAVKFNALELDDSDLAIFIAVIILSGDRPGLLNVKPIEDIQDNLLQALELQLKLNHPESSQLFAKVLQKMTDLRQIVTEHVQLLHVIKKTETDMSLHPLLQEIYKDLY

[13] = organism: Rattus norvegicus; experiment: Compound was tested for Antihyperlipidemic activity in Zucker Diabetic fatty rats, activity is expressed as percent reduction of Triglycerides; type: functional
[14] = organism: Rattus norvegicus; experiment: The compound was tested for Antihyperlipidemic activity in Zucker Diabetic fatty rats, activity is expressed as percent reduction of NEFAs; type: functional
[15] = tested on: Rattus norvegicus; experiment: The compound was tested in vivo for Antihyperglycemic activity in Zucker Diabetic fatty rats, activity is expressed as percent reduction of HbA1C.; type: functional
[16] = organism: Rattus norvegicus; experiment: The compound was tested for Antihyperlipidemic activity in Zucker Diabetic fatty rats, activity is expressed as percent reduction of Triglycerides; type: functional
[17] = tested on: Rattus norvegicus; experiment: The compound was tested in vivo for Antihyperglycemic activity in Zucker Diabetic fatty rats, activity is expressed as percent reduction of plasma glucose; type: functional
[18] = molecular target: T6, Peroxisome proliferator-activated receptor gamma (Homo sapiens) (UniProt P37231)
T6 sequence (whole entry): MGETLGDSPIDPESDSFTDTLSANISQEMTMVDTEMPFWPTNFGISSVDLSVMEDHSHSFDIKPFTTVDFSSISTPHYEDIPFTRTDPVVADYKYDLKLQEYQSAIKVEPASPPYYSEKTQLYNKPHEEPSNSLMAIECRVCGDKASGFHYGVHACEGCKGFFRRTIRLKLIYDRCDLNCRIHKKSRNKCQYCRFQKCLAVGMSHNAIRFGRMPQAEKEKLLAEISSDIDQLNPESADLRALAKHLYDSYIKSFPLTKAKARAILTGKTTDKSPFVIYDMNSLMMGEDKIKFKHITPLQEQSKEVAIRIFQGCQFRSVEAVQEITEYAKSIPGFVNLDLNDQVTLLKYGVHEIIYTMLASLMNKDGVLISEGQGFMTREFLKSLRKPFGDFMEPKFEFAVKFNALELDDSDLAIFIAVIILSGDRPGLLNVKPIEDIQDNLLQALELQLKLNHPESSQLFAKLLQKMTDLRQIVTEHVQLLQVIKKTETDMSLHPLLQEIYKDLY
Description: Tested for its ability to bind to Peroxisome proliferator activated receptor gamma using [3H]-BRL 49653 as radioligand in scintillation proximity assay (SPA)

[19] = molecular target: T7, Peroxisome proliferator-activated receptor alpha (Homo sapiens, UniProt Q07869); experiment: Compound was tested functionally in vitro for inducing 50% of the maximum alkaline phosphatase activity (Transactivation) against human Peroxisome proliferator activated receptor alpha using transfection assay in CV-1 cells; type: functional, cell-based
T7 sequence (Q07869 whole entry): T4 sequence (whole entry)

[20] = molecular target: T8, Peroxisome proliferator-activated receptor gamma (Homo sapiens, UniProt P37231)
T8 sequence (P37231 whole entry): T6 sequence (whole entry)
Description: In vitro binding to peroxisome proliferator activated receptor gamma (PPAR gamma) using [3H]-BRL 49653 as radioligand in scintillation proximity assay (SPA)

[21] = molecular target: T4, Peroxisome proliferator-activated receptor alpha (Homo sapiens); experiment: The compound was tested in vitro for inhibiting the 50% binding of Peroxisome proliferator activated receptor alpha
[22] = molecular target: T8, Peroxisome proliferator-activated receptor gamma; remark: listed apart in the source
Description: (§1) Activation of peroxisome proliferator activated receptor gamma measured by induction of 50% of maximum alkaline phosphatase activity, transfection assay in CV-1 cells

[23] = molecular target: T8, Peroxisome proliferator-activated receptor gamma; settings: cv-1
Description: as §1

Compound	Reduction [3] [%]	Log EC50 [4]	Log EC50 [5]	body weight increase % [6] [%]	Reduction [7] [%]	Log EC50 [8]	Reduction [9] [%]	EC50 [12] [nM]	also measured
CN(CCOc1ccc(C[C@H](Nc2ccccc2C(=O)c2ccccc2)C(=O)O)cc1)c1ccccn1 (stereo in doubt; 18)	61	inactive	inactive	6	46	inactive	58	13.2	Reduction [1]: 68%; Reduction [2]: 73%; Log EC50 [10]: inactive; Reduction [11]: 37%; Reduction [13]: 87%
Cc1c(C)c2c(c(C)c1O)CCC(C)(COc1ccc(CC3SC(=O)NC3=O)cc1)O2 (stereo unspecified) [TROGLITAZONE]	–	–	–	–	–	–	–	–	Reduction [14]: 81%; Reduction [15]: 29%; Reduction [16]: 87%; Reduction [17]: 61%
CN(CCOc1ccc(C[C@H](Nc2ccccc2C(=O)c2ccccc2)C(=O)O)cc1)c1nc2ccccc2o1	36	inactive	inactive	9	38	inactive	41	4.68	Log Ki [18]: 8.83 µM; EC50 [19]: 6460 nM; Ki [20]: 1.48 nM; pKi [21]: 5.92; EC50 [22]: 2.63 nM; Log EC50 [23]: -8.58

From ChEMBL document CHEMBL1131422, “N-(2-Benzoylphenyl)-L-tyrosine PPARgamma agonists. 1. Discovery of a novel series of potent antihyperglycemic and antihyperlipidemic agents” (J Med Chem, 1998)
